According to PubChem BioAssay (NCI):
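Assay format: 96-well plates, 48-hour exposure. GI50 is the concentration that inhibits growth by half. TGI denotes the concentration required for complete inhibition of growth.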

Columns and labels:
Test in all cases: growth of human tumour cells (NCI), 48 h
M14 melanoma = test system: M14 melanoma
SK-MEL-5 melanoma = test system: SK-MEL-5 melanoma
MCF7 breast = test system: MCF7 breast
UACC-62 melanoma = test system: UACC-62 melanoma
DU-145 prostate = test system: DU-145 prostate
EKVX NSCLC = test system: EKVX NSCLC
NCI/ADR-RES ovarian = test system: NCI/ADR-RES ovarian
A549 NSCLC = test system: A549 NSCLC
IGROV1 ovarian = test system: IGROV1 ovarian
OVCAR-5 ovarian = test system: OVCAR-5 ovarian
SN12C renal = test system: SN12C renal
NCI-H23 lung = test system: NCI-H23 lung
HL-60(TB) leukemia = test system: HL-60(TB) leukemia
U251 CNS = test system: U251 CNS
HT29 colon = test system: HT29 colon
HOP-62 NSCLC = test system: HOP-62 NSCLC
RPMI-8226 leukemia = test system: RPMI-8226 leukemia
KM12 colon = test system: KM12 colon
SR leukemia = test system: SR leukemia
CCRF-CEM leukemia = test system: CCRF-CEM leukemia
UO-31 renal = test system: UO-31 renal
SNB-19 CNS = test system: SNB-19 CNS
SF-295 CNS = test system: SF-295 CNS
SF-268 CNS = test system: SF-268 CNS
A498 renal = test system: A498 renal
SF-539 CNS = test system: SF-539 CNS
NCI-H226 lung = test system: NCI-H226 lung
UACC-257 melanoma = test system: UACC-257 melanoma
CAKI-1 renal = test system: CAKI-1 renal
HCC-2998 colon = test system: HCC-2998 colon
MOLT-4 leukemia = test system: MOLT-4 leukemia
HCT-15 colon = test system: HCT-15 colon
HS 578T breast = test system: HS 578T breast
MDA-MB-435 = test system: MDA-MB-435
SK-MEL-2 melanoma = test system: SK-MEL-2 melanoma
OVCAR-4 ovarian = test system: OVCAR-4 ovarian
OVCAR-8 ovarian = test system: OVCAR-8 ovarian
HCT-116 colon = test system: HCT-116 colon
SW-620 colon = test system: SW-620 colon
MALME-3M melanoma = test system: MALME-3M melanoma
BT-549 breast = test system: BT-549 breast
HOP-92 NSCLC = test system: HOP-92 NSCLC
TK-10 renal = test system: TK-10 renal
COLO 205 colon = test system: COLO 205 colon
OVCAR-3 ovarian = test system: OVCAR-3 ovarian
MDA-MB-231 breast = test system: MDA-MB-231 breast
K-562 leukemia = test system: K-562 leukemia
RXF 393 renal = test system: RXF 393 renal
SNB-75 CNS = test system: SNB-75 CNS
SK-OV-3 ovarian = test system: SK-OV-3 ovarian
SK-MEL-28 melanoma = test system: SK-MEL-28 melanoma
PC-3 prostate = test system: PC-3 prostate
NCI-H522 lung = test system: NCI-H522 lung
NCI-H460 lung = test system: NCI-H460 lung
ACHN renal = test system: ACHN renal
T-47D breast = test system: T-47D breast
786-0 renal = test system: 786-0 renal
LOX IMVI melanoma = test system: LOX IMVI melanoma
MDA-N = test system: MDA-N

SMILES: O=C(O[C@H]1CN[C@H](C#Cc2cc3ncnc(Nc4ccc5c(cnn5Cc5ccccc5)c4)c3s2)C1)N1CCOCC1
- GI50 (M14 melanoma): 5.22 µM
- TGI (M14 melanoma): > 25 µM
- GI50 (SK-MEL-5 melanoma): 6.18 µM
- TGI (SK-MEL-5 melanoma): > 25 µM
- GI50 (MCF7 breast): 5.91 µM
- TGI (MCF7 breast): > 25 µM
- GI50 (UACC-62 melanoma): 5.74 µM
- TGI (UACC-62 melanoma): > 25 µM
- GI50 (DU-145 prostate): 2.16 µM
- TGI (DU-145 prostate): > 22.9 µM
- GI50 (EKVX NSCLC): 0.234 µM
- TGI (EKVX NSCLC): > 11.4 µM
- GI50 (NCI/ADR-RES ovarian): 9.55 µM
- TGI (NCI/ADR-RES ovarian): > 25 µM
- GI50 (A549 NSCLC): 3.71 µM
- TGI (A549 NSCLC): > 25 µM
- GI50 (IGROV1 ovarian): 0.805 µM
- TGI (IGROV1 ovarian): > 18.7 µM
- GI50 (OVCAR-5 ovarian): 1.64 µM
- TGI (OVCAR-5 ovarian): > 25 µM
- GI50 (SN12C renal): 2.46 µM
- TGI (SN12C renal): > 25 µM
- GI50 (NCI-H23 lung): 11.3 µM
- TGI (NCI-H23 lung): > 25 µM
- GI50 (HL-60(TB) leukemia): 6.74 µM
- TGI (HL-60(TB) leukemia): > 20.4 µM
- GI50 (U251 CNS): 6.03 µM
- TGI (U251 CNS): > 25 µM
- GI50 (HT29 colon): 3.92 µM
- TGI (HT29 colon): 11.5 µM
- GI50 (HOP-62 NSCLC): 4.86 µM
- TGI (HOP-62 NSCLC): > 25 µM
- GI50 (RPMI-8226 leukemia): 5.38 µM
- TGI (RPMI-8226 leukemia): 20.4 µM
- GI50 (KM12 colon): 4.63 µM
- TGI (KM12 colon): 10.5 µM
- GI50 (SR leukemia): 7.53 µM
- TGI (SR leukemia): > 25 µM
- GI50 (CCRF-CEM leukemia): 3.15 µM
- TGI (CCRF-CEM leukemia): > 25 µM
- GI50 (UO-31 renal): 0.536 µM
- TGI (UO-31 renal): 13.3 µM
- GI50 (SNB-19 CNS): 7.71 µM
- TGI (SNB-19 CNS): > 25 µM
- GI50 (SF-295 CNS): 7.49 µM
- TGI (SF-295 CNS): > 25 µM
- GI50 (SF-268 CNS): 4.43 µM
- TGI (SF-268 CNS): 24.5 µM
- GI50 (A498 renal): 0.998 µM
- TGI (A498 renal): 15.3 µM
- GI50 (SF-539 CNS): 4.18 µM
- TGI (SF-539 CNS): > 19.1 µM
- GI50 (NCI-H226 lung): 5.37 µM
- TGI (NCI-H226 lung): > 25 µM
- GI50 (UACC-257 melanoma): 7.45 µM
- TGI (UACC-257 melanoma): > 25 µM
- GI50 (CAKI-1 renal): 0.602 µM
- TGI (CAKI-1 renal): > 11.3 µM
- GI50 (HCC-2998 colon): 5 µM
- TGI (HCC-2998 colon): > 25 µM
- GI50 (MOLT-4 leukemia): 4.22 µM
- TGI (MOLT-4 leukemia): > 23.6 µM
- GI50 (HCT-15 colon): 2.37 µM
- TGI (HCT-15 colon): > 25 µM
- GI50 (HS 578T breast): 0.78 µM
- TGI (HS 578T breast): > 17 µM
- GI50 (MDA-MB-435): 6.08 µM
- TGI (MDA-MB-435): > 25 µM
- GI50 (SK-MEL-2 melanoma): 4.31 µM
- TGI (SK-MEL-2 melanoma): 19.3 µM
- GI50 (OVCAR-4 ovarian): 5.3 µM
- TGI (OVCAR-4 ovarian): > 25 µM
- GI50 (OVCAR-8 ovarian): 6.4 µM
- TGI (OVCAR-8 ovarian): > 25 µM
- GI50 (HCT-116 colon): 3.74 µM
- TGI (HCT-116 colon): > 25 µM
- GI50 (SW-620 colon): 8.57 µM
- TGI (SW-620 colon): > 25 µM
- GI50 (MALME-3M melanoma): 4.79 µM
- TGI (MALME-3M melanoma): 23.7 µM
- GI50 (BT-549 breast): 3.35 µM
- TGI (BT-549 breast): 9.29 µM
- GI50 (HOP-92 NSCLC): 1.29 µM
- TGI (HOP-92 NSCLC): > 25 µM
- GI50 (TK-10 renal): 0.131 µM
- TGI (TK-10 renal): 1.83 µM
- GI50 (COLO 205 colon): 3.78 µM
- TGI (COLO 205 colon): 8.7 µM
- GI50 (OVCAR-3 ovarian): 3.1 µM
- TGI (OVCAR-3 ovarian): 10.6 µM
- GI50 (MDA-MB-231 breast): 1.8 µM
- TGI (MDA-MB-231 breast): > 25 µM
- GI50 (K-562 leukemia): 6.99 µM
- TGI (K-562 leukemia): > 25 µM
- GI50 (RXF 393 renal): 1.15 µM
- TGI (RXF 393 renal): 11.5 µM
- GI50 (SNB-75 CNS): 2.01 µM
- TGI (SNB-75 CNS): > 23 µM
- GI50 (SK-OV-3 ovarian): 0.0182 µM
- TGI (SK-OV-3 ovarian): > 12.7 µM
- GI50 (SK-MEL-28 melanoma): 9.34 µM
- TGI (SK-MEL-28 melanoma): > 25 µM
- GI50 (PC-3 prostate): 7.36 µM
- TGI (PC-3 prostate): > 25 µM
- GI50 (NCI-H522 lung): 0.195 µM
- TGI (NCI-H522 lung): 4.26 µM
- GI50 (NCI-H460 lung): 7.26 µM
- TGI (NCI-H460 lung): > 25 µM
- GI50 (ACHN renal): 0.586 µM
- TGI (ACHN renal): > 25 µM
- GI50 (T-47D breast): 2.89 µM
- TGI (T-47D breast): > 25 µM
- GI50 (786-0 renal): 7.16 µM
- TGI (786-0 renal): > 25 µM
- GI50 (LOX IMVI melanoma): 5.88 µM
- TGI (LOX IMVI melanoma): > 25 µM

SMILES: CN(C)c1ccc(/C=c2/c3ccccc3n3c2cc(-c2ccc(Cl)cc2)[n+]3C)cc1
- TGI (SK-MEL-5 melanoma): 0.362 µM
- TGI (DU-145 prostate): 1.13 µM
- TGI (EKVX NSCLC): 2.41 µM
- TGI (NCI/ADR-RES ovarian): > 89.3 µM
- TGI (A549 NSCLC): 1.87 µM
- TGI (OVCAR-5 ovarian): 2.33 µM
- TGI (U251 CNS): 1.09 µM
- TGI (HOP-62 NSCLC): 1.48 µM
- TGI (RPMI-8226 leukemia): 0.566 µM
- TGI (KM12 colon): 0.264 µM
- TGI (SNB-19 CNS): 1.33 µM
- TGI (MDA-N): 1.23 µM
- TGI (SF-295 CNS): 1.77 µM
- TGI (A498 renal): 3.45 µM
- TGI (SF-539 CNS): 0.748 µM
- TGI (NCI-H226 lung): 1.68 µM
- TGI (UACC-257 melanoma): 1.08 µM
- TGI (CAKI-1 renal): 0.782 µM
- TGI (HCC-2998 colon): 1.95 µM
- TGI (MOLT-4 leukemia): > 100 µM
- TGI (MDA-MB-435): 1.18 µM
- TGI (SK-MEL-2 melanoma): 0.845 µM
- TGI (OVCAR-4 ovarian): 2.51 µM
- TGI (SW-620 colon): 1.31 µM
- TGI (COLO 205 colon): 0.211 µM
- TGI (OVCAR-3 ovarian): 1.34 µM
- TGI (SK-OV-3 ovarian): 1.45 µM
- TGI (SK-MEL-28 melanoma): 1.9 µM
- TGI (PC-3 prostate): 1.01 µM
- TGI (NCI-H460 lung): 0.656 µM
- TGI (ACHN renal): 1.46 µM
- TGI (T-47D breast): 1.38 µM
